{"source": "patent US20240115575A1", "about": "“PHARMACEUTICAL COMPOSITION OF MULTI-TARGET PROTEIN KINASE INHIBITORS, AND USE THEREOF” (CSPC Zhongqi Pharmaceutical Technology (Shijiazhuang) Co., …, priority 2020, published 2024)", "key": {"[1]": {"test_system": "MV4-11 (FLT3-ITD mutation) subcutaneous tumor", "test": "In-vivo anti-tumor test, MV4-11 subcutaneous tumor model", "settings": "orally administered once daily for 21 days", "protocol": "(§1) According to the in-vivo anti-tumor test described under Biological Assessment of the Patent Application No. WO 2011/147066, the samples of the salt obtained in Preparation Example 2 were tested (specifically for FLT3-ITD acute myeloid leukemia, non-small cell lung cancer with EGFR activating mutation, and Ph-positive chronic myeloid leukemia, respectively)."}, "[2]": {"test_system": "human non-small cell lung cancer HCC827", "test": "In-vivo anti-tumor test, non-small cell lung cancer model", "settings": "orally administered once daily for 30 days", "protocol": "as §1"}, "[3]": {"test": "API-excipient compatibility test", "assay_type": "physicochemical", "settings": "14 days and 28 or 30 days; illumination, 60° C., high humidity; maximum single impurity, total impurity, color", "protocol": "The active ingredient (compound of Formula B) was mixed evenly with various excipients mentioned in the present application respectively, and put in 10-ml injection vials. The injection vials were stored for 14 days and 28 days or 30 days under the conditions of an illumination of 4500 lux±500 lux/peripheral humidity, a high temperature of 60° C.±2° C./peripheral humidity, a high humidity of 90%±5% RH, and a temperature of 25° C.±2° C. respectively to detect the impurity content, so as to test the compatibility of the active ingredient with various excipients."}, "MET": {"biological_target": "MET (Homo sapiens, UniProt P08581)", "sequence (P08581 25-1390)": "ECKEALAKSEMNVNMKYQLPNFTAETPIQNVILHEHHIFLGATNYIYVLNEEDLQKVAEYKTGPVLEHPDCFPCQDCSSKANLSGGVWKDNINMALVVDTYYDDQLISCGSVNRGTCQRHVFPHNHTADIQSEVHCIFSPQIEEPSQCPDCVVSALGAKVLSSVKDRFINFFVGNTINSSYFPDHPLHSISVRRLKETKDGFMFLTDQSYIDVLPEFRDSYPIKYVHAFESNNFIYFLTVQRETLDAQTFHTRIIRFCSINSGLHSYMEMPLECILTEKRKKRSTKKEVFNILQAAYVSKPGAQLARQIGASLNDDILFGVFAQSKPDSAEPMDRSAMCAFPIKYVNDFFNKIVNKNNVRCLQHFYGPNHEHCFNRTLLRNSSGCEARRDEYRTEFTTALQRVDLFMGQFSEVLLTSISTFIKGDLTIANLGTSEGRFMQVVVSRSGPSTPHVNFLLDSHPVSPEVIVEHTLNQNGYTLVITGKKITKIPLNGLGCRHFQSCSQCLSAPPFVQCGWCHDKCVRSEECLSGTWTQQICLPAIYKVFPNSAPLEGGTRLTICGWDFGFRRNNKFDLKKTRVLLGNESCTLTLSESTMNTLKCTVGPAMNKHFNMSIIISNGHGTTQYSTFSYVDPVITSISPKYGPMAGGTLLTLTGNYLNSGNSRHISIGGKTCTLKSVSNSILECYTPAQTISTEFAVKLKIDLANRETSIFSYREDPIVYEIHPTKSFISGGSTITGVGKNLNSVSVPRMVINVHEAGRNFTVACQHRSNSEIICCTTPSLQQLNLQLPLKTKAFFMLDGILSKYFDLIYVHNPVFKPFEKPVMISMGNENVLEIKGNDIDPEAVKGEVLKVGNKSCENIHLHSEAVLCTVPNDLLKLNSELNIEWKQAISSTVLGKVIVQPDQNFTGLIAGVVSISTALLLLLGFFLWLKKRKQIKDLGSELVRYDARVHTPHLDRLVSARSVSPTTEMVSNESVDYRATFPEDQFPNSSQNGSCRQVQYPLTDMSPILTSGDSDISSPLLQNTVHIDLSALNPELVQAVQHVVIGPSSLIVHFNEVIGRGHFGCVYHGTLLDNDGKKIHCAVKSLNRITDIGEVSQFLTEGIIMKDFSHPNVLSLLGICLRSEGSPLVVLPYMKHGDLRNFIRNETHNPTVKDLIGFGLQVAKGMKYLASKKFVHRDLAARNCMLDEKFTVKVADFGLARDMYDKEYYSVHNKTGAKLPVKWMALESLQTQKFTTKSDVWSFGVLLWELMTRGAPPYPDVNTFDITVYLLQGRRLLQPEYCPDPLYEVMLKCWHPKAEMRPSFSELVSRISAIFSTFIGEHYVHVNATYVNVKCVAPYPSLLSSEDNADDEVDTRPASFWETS", "test": "Evaluation of the inhibitory activity of kinase", "assay_type": "biochemical", "protocol": "(§2) The samples of the salt obtained in Preparation Example 2 were tested according to the evaluation of the inhibitory activity of kinase described under Biological Assessment of the Patent Application No. WO 2011/147066."}, "BTK": {"biological_target": "BTK (Homo sapiens, UniProt Q06187)", "test": "Evaluation of the inhibitory activity of kinase", "assay_type": "biochemical", "protocol": "as §2"}, "VEGFR2": {"biological_target": "VEGFR2 (Homo sapiens, UniProt P35968)", "sequence (P35968 20-1356)": "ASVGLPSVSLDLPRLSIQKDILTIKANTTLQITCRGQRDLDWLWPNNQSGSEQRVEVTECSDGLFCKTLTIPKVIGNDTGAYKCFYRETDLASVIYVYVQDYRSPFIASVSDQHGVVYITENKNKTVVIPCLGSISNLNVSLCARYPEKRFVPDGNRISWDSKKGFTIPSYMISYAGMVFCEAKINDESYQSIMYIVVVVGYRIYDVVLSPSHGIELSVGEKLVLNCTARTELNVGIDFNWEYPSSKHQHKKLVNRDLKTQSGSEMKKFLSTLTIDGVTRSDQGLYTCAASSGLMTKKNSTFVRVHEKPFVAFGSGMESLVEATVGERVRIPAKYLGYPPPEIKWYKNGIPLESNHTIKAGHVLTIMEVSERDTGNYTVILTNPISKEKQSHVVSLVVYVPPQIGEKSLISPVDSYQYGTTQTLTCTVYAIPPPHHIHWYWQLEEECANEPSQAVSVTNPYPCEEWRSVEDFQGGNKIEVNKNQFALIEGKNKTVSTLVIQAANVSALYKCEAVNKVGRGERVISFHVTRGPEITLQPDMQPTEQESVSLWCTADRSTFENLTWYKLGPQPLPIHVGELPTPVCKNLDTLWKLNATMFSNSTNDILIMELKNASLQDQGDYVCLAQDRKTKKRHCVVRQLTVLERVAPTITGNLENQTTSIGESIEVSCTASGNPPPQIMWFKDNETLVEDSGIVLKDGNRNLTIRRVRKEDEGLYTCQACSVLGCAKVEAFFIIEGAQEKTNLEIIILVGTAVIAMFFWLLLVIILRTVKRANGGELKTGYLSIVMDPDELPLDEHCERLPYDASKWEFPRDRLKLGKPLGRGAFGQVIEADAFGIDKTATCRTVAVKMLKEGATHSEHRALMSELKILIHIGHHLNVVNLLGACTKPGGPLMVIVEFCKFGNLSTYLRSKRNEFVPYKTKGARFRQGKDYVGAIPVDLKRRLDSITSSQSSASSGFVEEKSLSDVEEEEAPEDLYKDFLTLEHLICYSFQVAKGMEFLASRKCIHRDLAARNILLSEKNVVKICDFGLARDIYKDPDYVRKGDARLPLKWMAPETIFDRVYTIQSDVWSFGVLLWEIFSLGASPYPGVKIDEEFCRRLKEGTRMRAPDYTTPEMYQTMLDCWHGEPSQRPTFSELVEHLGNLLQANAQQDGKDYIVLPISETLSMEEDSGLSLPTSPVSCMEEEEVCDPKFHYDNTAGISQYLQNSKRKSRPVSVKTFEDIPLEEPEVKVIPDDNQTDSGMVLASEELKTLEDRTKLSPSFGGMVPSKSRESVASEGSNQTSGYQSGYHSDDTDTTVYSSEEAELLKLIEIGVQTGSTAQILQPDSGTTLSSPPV", "test": "Evaluation of the inhibitory activity of kinase", "assay_type": "biochemical", "protocol": "as §2"}, "PDGFRα": {"biological_target": "PDGFRα (Homo sapiens, UniProt P16234)", "sequence (P16234 24-1089)": "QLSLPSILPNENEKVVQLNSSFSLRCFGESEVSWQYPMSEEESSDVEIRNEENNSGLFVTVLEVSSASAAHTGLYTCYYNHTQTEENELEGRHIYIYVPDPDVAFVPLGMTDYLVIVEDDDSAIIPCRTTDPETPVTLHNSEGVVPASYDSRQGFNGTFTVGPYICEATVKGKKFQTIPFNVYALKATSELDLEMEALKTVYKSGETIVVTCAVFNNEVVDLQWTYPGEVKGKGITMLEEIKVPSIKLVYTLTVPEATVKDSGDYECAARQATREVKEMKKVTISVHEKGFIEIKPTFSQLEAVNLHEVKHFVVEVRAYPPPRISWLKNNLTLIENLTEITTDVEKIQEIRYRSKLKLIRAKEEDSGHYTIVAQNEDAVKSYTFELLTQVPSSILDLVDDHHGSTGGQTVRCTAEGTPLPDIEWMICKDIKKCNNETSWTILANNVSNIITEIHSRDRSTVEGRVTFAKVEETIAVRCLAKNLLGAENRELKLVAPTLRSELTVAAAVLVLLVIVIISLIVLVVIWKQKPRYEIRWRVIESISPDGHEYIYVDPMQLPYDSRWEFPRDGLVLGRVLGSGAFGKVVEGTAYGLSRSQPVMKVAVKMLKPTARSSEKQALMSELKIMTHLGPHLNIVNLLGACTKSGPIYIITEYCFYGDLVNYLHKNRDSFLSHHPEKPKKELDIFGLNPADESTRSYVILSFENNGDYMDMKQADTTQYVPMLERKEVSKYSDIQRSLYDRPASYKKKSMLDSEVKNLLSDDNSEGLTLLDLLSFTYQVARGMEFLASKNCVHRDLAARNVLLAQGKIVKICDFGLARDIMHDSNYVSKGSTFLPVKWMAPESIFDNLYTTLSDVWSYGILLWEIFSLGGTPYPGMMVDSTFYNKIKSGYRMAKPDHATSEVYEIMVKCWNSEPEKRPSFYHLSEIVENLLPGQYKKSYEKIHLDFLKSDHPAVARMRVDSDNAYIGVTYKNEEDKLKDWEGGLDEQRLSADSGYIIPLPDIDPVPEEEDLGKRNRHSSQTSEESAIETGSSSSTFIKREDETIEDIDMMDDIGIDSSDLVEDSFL", "test": "Evaluation of the inhibitory activity of kinase", "assay_type": "biochemical", "protocol": "as §2"}, "ALK": {"biological_target": "ALK (Homo sapiens, UniProt Q9UM73)", "test": "Evaluation of the inhibitory activity of kinase", "assay_type": "biochemical", "protocol": "as §2"}, "c-KIT": {"biological_target": "c-KIT (Homo sapiens, UniProt P10721)", "sequence (P10721 26-976)": "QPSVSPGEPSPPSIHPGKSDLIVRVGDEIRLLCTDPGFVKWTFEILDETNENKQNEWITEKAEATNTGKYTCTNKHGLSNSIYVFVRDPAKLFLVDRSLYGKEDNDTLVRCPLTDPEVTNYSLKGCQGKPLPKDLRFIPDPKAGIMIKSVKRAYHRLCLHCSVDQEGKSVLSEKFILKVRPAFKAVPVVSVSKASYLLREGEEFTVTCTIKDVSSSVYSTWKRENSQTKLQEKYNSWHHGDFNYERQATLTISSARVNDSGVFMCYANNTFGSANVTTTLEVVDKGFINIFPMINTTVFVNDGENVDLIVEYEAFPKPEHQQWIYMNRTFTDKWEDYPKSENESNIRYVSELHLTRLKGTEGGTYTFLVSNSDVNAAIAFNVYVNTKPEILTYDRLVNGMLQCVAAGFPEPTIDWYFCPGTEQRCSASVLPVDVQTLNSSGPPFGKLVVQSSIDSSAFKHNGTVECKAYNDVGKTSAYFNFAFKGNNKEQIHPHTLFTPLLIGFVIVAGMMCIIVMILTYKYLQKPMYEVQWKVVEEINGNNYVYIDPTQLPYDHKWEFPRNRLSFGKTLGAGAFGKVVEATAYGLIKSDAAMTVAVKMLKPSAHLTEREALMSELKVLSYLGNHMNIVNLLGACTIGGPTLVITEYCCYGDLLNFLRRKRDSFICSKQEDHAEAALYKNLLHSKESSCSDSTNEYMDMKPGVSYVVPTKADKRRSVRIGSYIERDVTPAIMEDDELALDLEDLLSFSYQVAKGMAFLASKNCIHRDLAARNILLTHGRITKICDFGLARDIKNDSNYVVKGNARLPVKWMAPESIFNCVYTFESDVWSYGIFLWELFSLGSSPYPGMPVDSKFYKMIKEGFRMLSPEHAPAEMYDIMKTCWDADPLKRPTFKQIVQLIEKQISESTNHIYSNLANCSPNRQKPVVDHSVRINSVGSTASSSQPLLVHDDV", "test": "Evaluation of the inhibitory activity of kinase", "assay_type": "biochemical", "protocol": "as §2"}}, "data": [{"smiles": "CC(C)n1c(Nc2cccnc2)nc2cnc(Nc3ccc(N4CCN(C)CC4)cc3)nc21", "note": "[Preparation Example 2]", "values": [{"measurement": "effect on tumor growth", "setting": "[1]; 5 mg/kg", "value": "completely inhibit the tumor growth"}, {"measurement": "effect on tumor growth", "setting": "[1]; 10 mg/kg", "value": "complete tumor regression"}, {"measurement": "effect on tumor growth", "setting": "[1]; 20 mg/kg", "value": "complete tumor regression"}, {"measurement": "effect on tumor (compared with the initial tumor)", "setting": "[2]; 7.5 mg/kg", "value": "tumor shrinkage"}, {"measurement": "effect on tumor (compared with the initial tumor)", "setting": "[2]; 15 mg/kg", "value": "tumor shrinkage"}, {"measurement": "effect on tumor (compared with the initial tumor)", "setting": "[2]; 30 mg/kg", "value": "almost complete tumor regression"}, {"measurement": "effect on growth of HCC827, dose dependence", "setting": "[2]; 7.5, 15 and 30 mg/kg", "value": "dose-dependently inhibit the growth"}, {"measurement": "compatibility of the active ingredient with various excipients", "setting": "[3]", "value": "good compatibility"}, {"measurement": "inhibiting the activity of kinase", "setting": "MET", "value": "capable of inhibiting"}, {"measurement": "inhibiting the activity of kinase", "setting": "BTK", "value": "capable of inhibiting"}, {"measurement": "inhibiting the activity of kinase", "setting": "VEGFR2", "value": "capable of inhibiting"}, {"measurement": "inhibiting the activity of kinase", "setting": "PDGFRα", "value": "capable of inhibiting"}, {"measurement": "inhibiting the activity of kinase", "setting": "ALK", "value": "capable of inhibiting"}, {"measurement": "inhibiting the activity of kinase", "setting": "c-KIT", "value": "capable of inhibiting"}]}]}
